We go through 3 compounds from patent publication US9981901B2, “IRE-1α inhibitors” (FOSUN ORINOVE PHARMATECH, INC., priority 2007, dated 2018).

One experiment relates to primary murine B cells. Description: IgM secretion after LPS stimulation of primary B cells. It is filed as cell-based, mouse. The note with it: added at beginning of stimulation and again at 24 hours; all doses down to 100 nM. How it is done: FIG. 9. Inhibition of IgM secretion after LPS stimulation of primary murine B cells with selected IRE-1α inhibitors. […] However, compounds had little effect when at added after 40 hours of stimulation; only slight inhibition at the highest dose. Methods were performed as previously described by Iwakoshi et al., Nature 4, 321-29, 2003 for B cell stimulation, plasma cell differentiation and IgM secretion. Primary B cells were Isolated from BALB/c splenocytes using mouse CD43 Microbeads (Miltenyi cat#130-049-801) with 1×10^6 cells per treatment. Purified B cells were stimulated in B Cell Media at a final density of 1×10^6/ml/well in 24-well plates with 20 μg/ml LPS (Sigma cat# L4391). IRE-1α inhibitor compound 17-1 was added at various concentrations (50 μM, 10 μM, 2 μM, 0.4 μM and 0.08 μM) at specified time points (t=0, t=24 hr, t=40 hr, etc.) Cells were incubated for 48 hr at 37° C. At end of the incubation, cells were spun in a plate at 1500 rpm/3 min. Supernatants were collected for quantitation for IgM secretion using a mouse IgM ELISA Kit (Bethyl Labs cat# E90-101). B Cell medium included RPMI+10% FBS supplemented with NEAA, HEPES, NaPyr, PSQ, and β-mercaptoethanol.

For experiment [1], the system named is phosphorylated IRE-1α and XBP1-splicing in RPMI8226 cells. Description: Western blot and RT-PCR of bortezomib-treated RPMI8226 cells. The format is cell-based, human. The note with it: 24 hour treatment.
Experiment [2] relates to human myeloma RPMI8226 tumor xenografts. Description: RPMI8226 xenograft efficacy model. It is filed as in vivo, mouse. The conditions noted are these: SCID mice, 0.75 mg/kg IV twice weekly.
Method: Mice are monitored for tumor growth, regression and general health. Tumors are collected and characterized by immunohistochemistry and/or FACS analysis. Tumor growth is measured by calipers, ultrasound, or by abdominal lavage. Biomarkers in the blood or tumor can evaluated (primarily XBP-1 splicing).
Experiment [3] has as its system RPMI-8226 multiple myeloma cells. Description: Proliferation of multiple myeloma cells (CellTiter-Glo). The note with it: RPMI8226, 24 hours, 100 μM to 0 μM. The format is cell-based, human. As for the experimental part: FIG. 5. Graph showing inhibition of proliferation of multiple myeloma cells by IRE-1α inhibitor 11-28 (Example 11). RPMI-8226 multiple myeloma cells were seeded at 20,000 cells per well in RPMI culture medium containing 1% FBS and the required antibiotics. The plate was incubated overnight at 37° C., 95% air, 5% CO2. The following day, compound 11-28 or medium alone was added to wells, resulting in a final volume of 100 μl per well. The compound concentration ranged from 100 μM to 0 μM, with compounds diluted by a factor of 4. After addition of compound, the plate was incubated at 37° C., 95% air, 5% CO2 for 24 hours. Cell proliferation was measured using the CellTiter-Glo assay (Promega), following the manufacturer's instructions.
Proliferation assays using myeloma cell lines (U266, RPMI8226 and MM.1s) are used to determine ED50. Compounds are used as single agents and in combination with other chemotherapeutic drugs.
(ATP-based viability assays read luminescence as a measure of living cells.)

Turning to `CN(C)C(=O)c1ccc(-c2ccc3c(C=O)c(O)ccc3c2)cc1` [compound 17-1, 4-(5-formyl-6-hydroxynaphthalen-2-yl)-N,N-dimethylbenzamide], in the experiment with primary murine B cells, the IgM secretion entry is reported as “blocked IgM secretion”.

Regarding `CC(C)C[C@H](NC(=O)[C@H](Cc1ccccc1)NC(=O)c1cnccn1)B(O)O` [bortezomib, [(1R)-3-methyl-1-[[(2S)-1-oxo-3-phenyl-2-[(pyrazinylcarbonyl)amino]propyl]amino]butyl] boronic acid], in experiment [1], the XBP1-splicing result is recorded as “increases” and the “levels of phosphorylated IRE-1α” value was “increases”. Moreover, the tumor growth result in experiment [2] was “suppression of tumor growth”.

For `COc1cc(-c2cccs2)cc(C=O)c1O` [11-28], the “inhibition of cell proliferation” value in experiment [3] is “inhibits the proliferation”.
